Experiments:
Type in all cases: physicochemical, human
[1] = Chilled storage stability of NAD+ and NMN in blood spotted on filter paper (DBS, LC-MS/MS); details: for Storage stability (mean): vs storage 0 days
Description: (§1) A filter paper, to which blood derived from a test subject is added (i.e., corresponding to a filter paper in Step 1 of the present invention), was searched for the optimal one for quantifying NAD+ and NMN when the filter paper with added blood derived from the test subject is stored in the refrigerator for a certain period of time.
From 5 subjects (adult men and women) per test, approximately 120 μL of blood (amount of 2 collection containers of the kit) was sampled by self-collection using an Micro Blood Collection Kit (Micro Blood Science Co., Ltd.), and was left to stand on ice until sample processing. The subjects were fasted on the morning of the sampling day, and samplings were performed around 9:00 am. The test was performed four times in total, with a total of 19 people performing evaluations, excluding one person due to insufficient sample blood volume.
The sampled blood was collected into 1.5 mL microtubes for each subject and mixed by gentle pipetting. Four types of filter papers (Whatman FTA DMPK-A Card/GE healthcare, QIAcard FTA DMPK-B Card/QIAGEN, QIAcard FTA DMPK-C Card/QIAGEN, Whatman 903 Protein saver card/Cytiva) were each spotted with 5 μL of blood (dropped/added) at multiple areas, sealed in a moisture absorption standard pouch (Moisture absorption-kun (registered trademark)/Maruto Sangyo Co., Ltd.), and stored in the refrigerator. Next, after chilled storing the blood-spotted filter paper for 2 days, 2 weeks (14 days or 15 days), or 1 month (30 days), the blood-spotted areas were cut out and collected in a 2 mL microtube. After adding 300 μL of a mixed aqueous solution of internal standard substances (NAD+-d4 and NMN-d4/Toronto Research Chemicals, Inc.) thereto and stirring using a vortex mixer, the mixture was mixed with a micromixer (TOMY MICRO TUBE MIXER MT-400, stirring speed 5) for 30 minutes at room temperature. The blood extract solution was dispensed by each 150 μL portion into a microtube, 300 μL of acetonitrile was added thereto, and the mixture was stirred using a vortex mixer, followed by centrifugation (24,250×g, 10 minutes, 4° C.). After centrifugation, 40 μL of the supernatant was dispensed into a vial and measured by LC-MS/MS.
In contrast, as a sample for initial values, 5 μL of blood was collected into a 2 mL microtube (no spotted filter paper), and 300 μL of a mixed aqueous solution of internal standard substances (NAD-d4 and NMN-d4/Toronto Research Chemicals, Inc.) was added thereto and stirred using a vortex mixer, and then the mixture was mixed using a micromixer (TOMY MICRO TUBE MIXER MT-400, stirring speed 5) for 30 minutes at room temperature. The blood extract solution was dispensed by each 150 μL portion into a microtube, 300 μL of acetonitrile was added thereto, and the mixture was stirred using a vortex mixer, followed by centrifugation (24,250×g, 10 minutes, 4° C.). After centrifugation, 40 μL of the supernatant was dispensed into a vial and measured by LC-MS/MS.

[2] = Room temperature storage stability of NAD+ and NMN in blood spotted on filter paper (DBS, LC-MS/MS); details: for Storage stability (mean): vs storage 0 days
Description: as §1, with “at room temperature” for “in the refrigerator”
A part of the blood spotted-filter paper prepared in Example 2 was sealed in a moisture absorption standard pouch (Moisture absorption-kun (registered trademark)/Maruto Sangyo Co., Ltd.) and then stored at room temperature. After storage at room temperature for 2 days, 1 week (7 days), or 2 weeks (15 days), the blood-spotted areas were cut out and collected in a 2 mL microtube. After performing the same treatment as in Example 2, measurement by LC-MS/MS was performed under the same conditions as in Example 2.

[3] = Storage stability of extract solution (frozen storage 71 days); details: frozen 71 days, vs storage 0 days
Excerpt: A filter paper with added blood derived from a test subject is brought into contact with a solvent (extraction buffer) to obtain the solvent after contact (hereinafter may be abbreviated as extract solution), which storage stability was investigated.
A part of the blood extract solution (100% water) from the filter paper obtained and stored in Example 2 (15 days of chilled storage) and a part of the solution for LC-MS/MS measurement (water containing 67% acetonitrile) were frozen-stored. After 71 days of frozen storage, the supernatant of the former obtained by adding twice the amount of acetonitrile thereto, mixing and centrifuging (24,250×g, 10 minutes, 4° C.), and the supernatant of the latter obtained by centrifuging (24,250×g, 10 minutes, 4° C.) the solution after storage were both measured by LC-MS/MS under the same conditions as in Example 2.

[4] = human blood on 903 card, chilled storage for 1 month
[5] = human blood on 903 card, chilled storage for 2 weeks
[6] = human blood on 903 card, chilled storage for 2 days
[7] = human blood on DMPK-A card, chilled storage for 1 month
[8] = human blood on DMPK-A card, chilled storage for 2 weeks
[9] = human blood on DMPK-A card, chilled storage for 2 days
[10] = human blood on DMPK-B card, chilled storage for 1 month
[11] = human blood on DMPK-B card, chilled storage for 2 weeks
[12] = human blood on DMPK-B card, chilled storage for 2 days
[13] = human blood on DMPK-C card, chilled storage for 2 weeks
[14] = human blood on DMPK-C card, chilled storage for 2 days
[15] = human blood on 903 card, room temperature storage for 2 days
[16] = human blood on DMPK-A card, room temperature storage for 2 weeks
[17] = human blood on DMPK-A card, room temperature storage for 2 days
[18] = human blood on DMPK-B card, room temperature storage for 1 week
[19] = human blood on DMPK-B card, room temperature storage for 2 weeks
[20] = human blood on DMPK-B card, room temperature storage for 2 days
[21] = human blood on DMPK-C card, chilled storage for 1 month
[22] = human blood on 903 card, room temperature storage for 2 weeks
[23] = human blood on DMPK-C card, room temperature storage for 2 weeks
[24] = human blood on DMPK-C card, room temperature storage for 2 days

SMILES: NC(=O)c1ccc[n+]([C@@H]2O[C@H](COP(=O)([O-])O)[C@@H](O)[C@H]2O)c1 [NMN, nicotinamide mononucleotide]
- Storage stability (mean) [1, 4]: 56.3%
- Storage stability, Evaluation [1, 5]: Average: (Average (≥50%))
- Storage stability (mean) [1, 5]: 64.5%
- Storage stability, Evaluation [1, 6]: Average: (Average (≥50%))
- Storage stability (mean) [1, 6]: 60.1%
- Storage stability, Evaluation [1, 7]: Excellent: (Excellent (≥85%))
- Storage stability (mean) [1, 7]: 99.9%
- Storage stability, Evaluation [1, 8]: Good: (Good (≥70%))
- Storage stability (mean) [1, 8]: 80.6%
- Storage stability, Evaluation [1, 9]: Good: (Good (≥70%))
- Storage stability (mean) [1, 9]: 73.1%
- Storage stability, Evaluation [1, 10]: Good: (Good (≥70%))
- Storage stability (mean) [1, 10]: 78.6%
- Storage stability, Evaluation [1, 11]: Excellent: (Excellent (≥85%))
- Storage stability (mean) [1, 11]: 93.6%
- Storage stability, Evaluation [1, 12]: Excellent: (Excellent (≥85%))
- Storage stability (mean) [1, 12]: 95.4%
- Storage stability, Evaluation [1, 13]: Average: (Average (≥50%))
- Storage stability (mean) [1, 13]: 52.9%
- Storage stability, Evaluation [1, 14]: Average: (Average (≥50%))
- Storage stability (mean) [1, 14]: 68.4%
- Storage stability, Evaluation [2, 15]: Good (Good (≥70%))
- Storage stability (mean) [2, 15]: 79.8%
- Storage stability, Evaluation [2, 16]: Excellent: (Excellent (≥85%))
- Storage stability (mean) [2, 16]: 124.2%
- Storage stability, Evaluation [2, 17]: Excellent: (Excellent (≥85%))
- Storage stability (mean) [2, 17]: 122.7%
- Storage stability, Evaluation [2, 18]: Average: (Average (≥50%))
- Storage stability (mean) [2, 18]: 69.1%
- Storage stability, Evaluation [2, 19]: Average: (Average (≥50%))
- Storage stability (mean) [2, 19]: 66.6%
- Storage stability, Evaluation [2, 20]: Excellent: (Excellent (≥85%))
- Storage stability (mean) [2, 20]: 96.5%

SMILES: NC(=O)c1ccc[n+]([C@@H]2O[C@H](COP(=O)([O-])OP(=O)(O)OC[C@H]3O[C@@H](n4cnc5c(N)ncnc54)[C@H](O)[C@@H]3O)[C@@H](O)[C@H]2O)c1 [NAD+, nicotinamide adenine dinucleotide]
- Storage stability, Evaluation [1, 4]: Good: (Good (≥70%))
- Storage stability (mean) [1, 4]: 82.6%
- Storage stability, Evaluation [1, 5]: Good: (Good (≥70%))
- Storage stability (mean) [1, 5]: 77.2%
- Storage stability, Evaluation [1, 6]: Good: (Good (≥70%))
- Storage stability (mean) [1, 6]: 74.1%
- Storage stability, Evaluation [1, 7]: Good: (Good (≥70%))
- Storage stability (mean) [1, 7]: 71.8%
- Storage stability, Evaluation [1, 8]: Good: (Good (≥70%))
- Storage stability (mean) [1, 8]: 79.1%
- Storage stability, Evaluation [1, 9]: Good: (Good (≥70%))
- Storage stability (mean) [1, 9]: 81.5%
- Storage stability, Evaluation [1, 10]: Good: (Good (≥70%))
- Storage stability (mean) [1, 10]: 79.8%
- Storage stability, Evaluation [1, 11]: Excellent: (Excellent (≥85%))
- Storage stability (mean) [1, 11]: 87.8%
- Storage stability, Evaluation [1, 12]: Good: (Good (≥70%))
- Storage stability (mean) [1, 12]: 80.7%
- Storage stability, Evaluation [1, 21]: Average: (Average (≥50%))
- Storage stability (mean) [1, 21]: 54.3%
- Storage stability, Evaluation [1, 13]: Average: (Average (≥50%))
- Storage stability (mean) [1, 13]: 66.6%
- Storage stability, Evaluation [1, 14]: Good: (Good (≥70%))
- Storage stability (mean) [1, 14]: 70.1%
- Storage stability, Evaluation [2, 22]: Average (Average (≥50%))
- Storage stability (mean) [2, 22]: 50.3%
- Storage stability, Evaluation [2, 15]: Average (Average (≥50%))
- Storage stability (mean) [2, 15]: 66.2%
- Storage stability, Evaluation [2, 16]: Average: (Average (≥50%))
- Storage stability (mean) [2, 16]: 51.6%
- Storage stability, Evaluation [2, 17]: Good: (Good (≥70%))
- Storage stability (mean) [2, 17]: 71.6%
- Storage stability, Evaluation [2, 18]: Excellent: (Excellent (≥85%))
- Storage stability (mean) [2, 18]: 87.2%
- Storage stability, Evaluation [2, 19]: Average: (Average (≥50%))
- Storage stability (mean) [2, 19]: 67.6%
- Storage stability, Evaluation [2, 20]: Good: (Good (≥70%))
- Storage stability (mean) [2, 20]: 82.0%
- Storage stability, Evaluation [2, 23]: Average (Average (≥50%))
- Storage stability (mean) [2, 23]: 50.2%
- Storage stability, Evaluation [2, 24]: Average (Average (≥50%))
- Storage stability (mean) [2, 24]: 55.9%
- Storage stability (mean) ([3]; 903 card chilled 15 days, extract solution 100% water): 266.3%
- Storage stability (mean) ([3]; 903 card chilled 15 days, extract solution with twice the amount of acetonitrile added): 92.1%
- Storage stability (mean) ([3]; DMPK-A card chilled 15 days, extract solution 100% water): 145.8%
- Storage stability (mean) ([3]; DMPK-A card chilled 15 days, extract solution with twice the amount of acetonitrile added): 89.6%
- Storage stability (mean) ([3]; DMPK-B card chilled 15 days, extract solution 100% water): 93.1%
- Storage stability (mean) ([3]; DMPK-B card chilled 15 days, extract solution with twice the amount of acetonitrile added): 100.0%
- Storage stability (mean) ([3]; DMPK-C card chilled 15 days, extract solution 100% water): 200.6%
- Storage stability (mean) ([3]; DMPK-C card chilled 15 days, extract solution with twice the amount of acetonitrile added): 73.6%

Source: US20250085283A1, “METHOD FOR QUANTIFYING NICOTINAMIDE ADENINE DINUCLEOTIDE (NAD+) OR NICOTINAMIDE MONONUCLEOTIDE (NMN), AND KIT AND FILTER PAPER FOR PERFORMING THE METHOD” (Teijin Limited, priority 2022, published 2025)
